Where a name gives a salt, the structure may show the parent alone. Read-outs that look alike come from different tables or passages of the source. Starred links: 1 amine or outer side, 2 acyl side, 3 side chain; linkers in the order of their positions; H or OH if unused. Positions of bridges follow the written chain, without caps; N, C: chain ends. Non-standard residues stand in square brackets, D forms with d. Residues, ends and D or L forms follow the SMILES beside them. *: point of attachment. Trp(7-(3-AcNH-Ph)) = CC(=O)Nc1cccc(-c2cccc3c(C[C@H](N)C(=O)O)c[nH]c23)c1; X51 = C[N+](C)(C)CCCc1cn(-c2ccc(C[C@H](N[*:1])C(=O)[*:2])cc2)nn1; Me3N+(CH2)2O(CH2)2O(CH2)2CO = C[N+](C)(C)CCOCCOCCC(=O)*; X34 = C[N+](C)(C)CCOCCOCCC(=O)N(CC[N+](C)(C)C)CC*; Trp(7-Me) = Cc1cccc2c(C[C@H](N)C(=O)O)c[nH]c12; Lys(Me3) = C[N+](C)(C)CCCC[C@H](N)C(=O)O; 2Nal = N[C@@H](Cc1ccc2ccccc2c1)C(=O)O; AEF = NCCOc1ccc(C[C@H](N)C(=O)O)cc1; X19 = C[N+](C)(C)C[C@@H](CC(=O)O)N*; X45 = COCC[N+](C)(C)CCc1cn(CC*)nn1; X26 = C[N+](C)(C)CCCCc1cn(CC*)nn1; 3Pal = N[C@@H](Cc1cccnc1)C(=O)O; Lys(Me) = CNCCCC[C@H](N)C(=O)O; X7 = COCCOCCOCCOCCOCCOCCC(=O)*; Pen = CC(C)(S)[C@H](N)C(=O)O; Thp = NC1(C(=O)O)CCOCC1; X3 = C[N+](C)(C)CCCCC*; X91 = c1cc[n+](CC*)cc1; Me2NCH2CH2 = CN(C)CC*; Tfa = O=C(C(F)(F)F)*; Sar = CNCC(=O)O
Test: Exposed Polar Surface Area (EPSA)
Assay type: physicochemical
Details: SFC on Chirex 3014 column, sample 1 mM DMSO stock
Outline: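 EPSA, in Å^2, is read from SFC retention time through a linear relationship established with eight calibration standards. Separation uses a Chirex 3014 stationary phase, 35 °C, 14 MPa back pressure, and a 5–60% methanol/ammonium formate modifier gradient in CO2.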

Structure (SMILES) | EPSA (read-out: EPSA) | EPSA
CC(=O)N(C)CCCC[C@H](NC(=O)C1(NC(=O)[C@H](Cc2ccc3ccccc3c2)NC(=O)[C@H](Cc2ccc(OCCCCC[N+](C)(C)C)cc2)NC(=O)[C@H]2NC(=O)[C@H](CCCC[N+](C)(C)C)NC(=O)[C@H](Cc3c[nH]c4c(C)cccc34)NC(=O)[C@H]([C@@H](C)O)NC(=O)[C@H](CC(=O)N(C)C)NC(=O)[C@@H](NC(=O)CCOCCOCC[N+](C)(C)C)C(C)(C)SSC2(C)C)CCOCC1)C(=O)N[C@@H](CC(N)=O)C(=O)N[C@@H](Cc1cccnc1)C(=O)N(C)CC(=O)N(C)C [compound 329, cPEG3aCO-Pen(3)-N(N(Me)2)-T-7MeW-K(Me)3-Pen(3)-TMAPF-2Nal-THP-K(NMeAc)-N-3Pya-Sar-CON(Me)2] ({Me3N+(CH2)2O(CH2)2O(CH2)2CO}-[Pen]D(NMe2)T[Trp(7-Me)][Lys(Me3)][Pen]Y(X3)[2Nal][Thp][Lys(Me)](Ac)N[3Pal][Sar]-NMe2; disulfide 1-6) | 155 A^2 | 
CC(=O)N(C)CCCC[C@@H]1NC(=O)[C@H](Cc2c[nH]c3c(C)cccc23)NC(=O)[C@H]([C@@H](C)O)NC(=O)[C@H](CC(=O)N(C)C)NC(=O)[C@@H](NC(=O)CCOCCOCC[N+](C)(C)C)C(C)(C)SSC(C)(C)[C@@H](C(=O)N[C@@H](Cc2ccc(OCC[n+]3ccccc3)cc2)C(=O)N[C@@H](Cc2ccc3ccccc3c2)C(=O)NC2(C(=O)N[C@@H](CCCCN(C)C(C)=O)C(=O)N[C@@H](CC(N)=O)C(=O)N[C@@H](Cc3cccnc3)C(=O)N(C)CC(=O)N(C)C)CCOCC2)NC1=O [compound 231, cPEG3aCO-Pen(3)-N(N(Me)2)-T-7MeW-K(NMeac)-Pen(3)-NPyEF-2Nal-THP-K(NMeAc)-N-3Pya-Sar-CON(Me)2] ({Me3N+(CH2)2O(CH2)2O(CH2)2CO}-[Pen]D(NMe2)T[Trp(7-Me)][Lys(Me)](Ac)[Pen]Y(X91)[2Nal][Thp][Lys(Me)](Ac)N[3Pal][Sar]-NMe2; disulfide 1-6) | 147 A^2 | 
COCC[N+](C)(C)CCc1cn(CCOc2ccc(C[C@H](NC(=O)[C@H]3NC(=O)[C@H](CCCCNC(C)=O)NC(=O)[C@H](Cc4c[nH]c5c(C)cccc45)NC(=O)[C@H]([C@@H](C)O)NC(=O)[C@H](CC(N)=O)NC(=O)[C@@H](NC(C)=O)C(C)(C)SSC3(C)C)C(=O)N[C@@H](Cc3ccc4ccccc4c3)C(=O)NC3(C(=O)N[C@@H](CCCCNC(C)=O)C(=O)N[C@@H](CC(N)=O)C(=O)N[C@@H](Cc4cccnc4)C(=O)N(C)CC(N)=O)CCOCC3)cc2)nn1 [compound 249] (Ac-[Pen]NT[Trp(7-Me)]K(Ac)[Pen]Y(X45)[2Nal][Thp]K(Ac)N[3Pal][Sar]-NH2; disulfide 1-6 (inferred)) | 147 A^2 | 
CNC(=O)C[C@H](NC(=O)[C@H](CCCCNC(C)=O)NC(=O)C1(NC(=O)[C@H](Cc2ccc3ccccc3c2)NC(=O)[C@H](Cc2ccc(OCCN)cc2)NC(=O)[C@H]2NC(=O)[C@H](CCCCNC(C)=O)NC(=O)[C@H](Cc3c[nH]c4c(C)cccc34)NC(=O)[C@H]([C@@H](C)O)NC(=O)[C@H](CC(N)=O)NC(=O)[C@@H](NC(C)=O)C(C)(C)SSC2(C)C)CCOCC1)C(=O)N[C@@H](Cc1cccnc1)C(=O)N(C)CC(N)=O [compound 48] (Ac-[Pen]NT[Trp(7-Me)]K(Ac)[Pen][AEF][2Nal][Thp]K(Ac)D(NHMe)[3Pal][Sar]-NH2; disulfide 1-6) | 184 A^2 | 
CC(=O)NCCCC[C@@H]1NC(=O)[C@H](Cc2c[nH]c3c(C)cccc23)NC(=O)[C@H]([C@@H](C)O)NC(=O)[C@H](CC(N)=O)NC(=O)[C@@H](NC(C)=O)C(C)(C)SSC(C)(C)[C@@H](C(=O)N[C@@H](Cc2ccc(-n3cc(CCC[N+](C)(C)C)nn3)cc2)C(=O)N[C@@H](Cc2ccc3ccccc3c2)C(=O)NC2(C(=O)N[C@@H](CCCCNC(C)=O)C(=O)N[C@@H](CC(N)=O)C(=O)N[C@@H](Cc3cccnc3)C(=O)N(C)CC(N)=O)CCOCC2)NC1=O [compound 423] (Ac-[Pen]NT[Trp(7-Me)]K(Ac)[Pen][X51][2Nal][Thp]K(Ac)N[3Pal][Sar]-NH2; disulfide 1-6) | 161 A^2 | 
CC(=O)N(C)CCCC[C@@H]1NC(=O)[C@H](Cc2c[nH]c3c(C)cccc23)NC(=O)[C@H]([C@@H](C)O)NC(=O)[C@H](CC(=O)N(C)C)NC(=O)[C@@H](NC(=O)CCOCCOCC[N+](C)(C)C)C(C)(C)SSC(C)(C)[C@@H](C(=O)N[C@@H](Cc2ccc(OCCn3cc(CCCC[N+](C)(C)C)nn3)cc2)C(=O)N[C@@H](Cc2ccc3ccccc3c2)C(=O)NC2(C(=O)N[C@@H](CCCCN(C)C(C)=O)C(=O)N[C@@H](CC(N)=O)C(=O)N[C@@H](Cc3cccnc3)C(=O)N(C)CC(=O)N(C)C)CCOCC2)NC1=O [compound 284, cPEG3aCO-Pen(3)-N(N(Me)2)-T-7MeW-K(NMeAc)-Pen(3)-Y(OTzlTMA4)-2Nal-THP-K(NMeAc)-N-3Pya-Sar-CON(Me)2] ({Me3N+(CH2)2O(CH2)2O(CH2)2CO}-[Pen]D(NMe2)T[Trp(7-Me)][Lys(Me)](Ac)[Pen]Y(X26)[2Nal][Thp][Lys(Me)](Ac)N[3Pal][Sar]-NMe2; disulfide 1-6) | 151 A^2 | 
CC(=O)NCCCC[C@@H]1NC(=O)[C@H](Cc2c[nH]c3c(C)cccc23)NC(=O)[C@H]([C@@H](C)O)NC(=O)[C@H](CC(N)=O)NC(=O)[C@@H](NC(C)=O)C(C)(C)SSC(C)(C)[C@@H](C(=O)N[C@@H](Cc2ccc(OCCN)cc2)C(=O)N[C@@H](Cc2ccc3ccccc3c2)C(=O)NC2(C(=O)N[C@@H](CCC(=O)N[C@H](CC(=O)O)C[N+](C)(C)C)C(=O)N[C@@H](CC(N)=O)C(=O)N[C@@H](Cc3cccnc3)C(=O)N(C)CC(N)=O)CCOCC2)NC1=O [compound 127] (Ac-[Pen]NT[Trp(7-Me)]K(Ac)[Pen][AEF][2Nal][Thp]E(X19)N[3Pal][Sar]-NH2; disulfide 1-6) | 179 A^2 | 
COCCOCCOCCOCCOCCOCCC(=O)N(C)CCCC[C@H](NC(=O)C1(NC(=O)[C@H](Cc2ccc3ccccc3c2)NC(=O)[C@H](Cc2ccc(OCCN)cc2)NC(=O)[C@H]2NC(=O)[C@H](CCCCNC(C)=O)NC(=O)[C@H](Cc3c[nH]c4c(C)cccc34)NC(=O)[C@H]([C@@H](C)O)NC(=O)[C@H](CC(N)=O)NC(=O)[C@@H](NC(C)=O)C(C)(C)SSC2(C)C)CCOCC1)C(=O)N[C@@H](CC(N)=O)C(=O)N[C@@H](Cc1cccnc1)C(=O)N(C)CC(N)=O [compound 92] (Ac-[Pen]NT[Trp(7-Me)]K(Ac)[Pen][AEF][2Nal][Thp][Lys(Me)](X7)N[3Pal][Sar]-NH2; disulfide 1-6) | 151 A^2 | 
CC(=O)N(C)CCCC[C@@H]1NC(=O)[C@H](Cc2c[nH]c3c(C)cccc23)NC(=O)[C@H]([C@@H](C)O)NC(=O)[C@H](CC(=O)N(C)C)NC(=O)[C@@H](NC(=O)CCOCCOCC[N+](C)(C)C)C(C)(C)SSC(C)(C)[C@@H](C(=O)N[C@@H](Cc2ccc(OCC3CCC([N+](C)(C)C)CC3)cc2)C(=O)N[C@@H](Cc2ccc3ccccc3c2)C(=O)NC2(C(=O)N[C@@H](CCCCN(C)C(C)=O)C(=O)N[C@@H](CC(N)=O)C(=O)N[C@@H](Cc3cccnc3)C(=O)N(C)CC(=O)N(C)C)CCOCC2)NC1=O (single isomer, unassigned) [compound 222, cPEG3aCO-Pen(3)-N(N(Me)2)-T-7MeW-K(NMeAc)-Pen(3)-ACHMF-2Nal-THP-K(NMeAc)-N-3Pya-Sar-CON(Me)2] |  | 142.87 Å^2
CC(=O)N(C)CCCC[C@@H]1NC(=O)[C@H](Cc2c[nH]c3c(C)cccc23)NC(=O)[C@H]([C@@H](C)O)NC(=O)[C@H](CC(=O)N(C)C)NC(=O)[C@@H](NC(=O)CCOCCOCC[N+](C)(C)C)C(C)(C)SSC(C)(C)[C@@H](C(=O)N[C@@H](Cc2ccc(OCCN(CC[N+](C)(C)C)C(=O)CCOCCOCC[N+](C)(C)C)cc2)C(=O)N[C@@H](Cc2ccc3ccccc3c2)C(=O)NC2(C(=O)N[C@@H](CCCCN(C)C(C)=O)C(=O)N[C@@H](CC(N)=O)C(=O)N[C@@H](Cc3cccnc3)C(=O)N(C)CC(=O)N(C)C)CCOCC2)NC1=O [compound 208, cPEG3aCO-Pen(3)-N(N(Me)2)-T-7MeW-K(NMeAc)-Pen(3)-AEF((Ch)cPEG3a)-2Nal-THP-K(NMeAc)-N-3Pya-Sar-CON(Me)2] ({Me3N+(CH2)2O(CH2)2O(CH2)2CO}-[Pen]D(NMe2)T[Trp(7-Me)][Lys(Me)](Ac)[Pen]Y(X34)[2Nal][Thp][Lys(Me)](Ac)N[3Pal][Sar]-NMe2; disulfide 1-6) | 141 A^2 | 
CC(=O)N(C)CCCC[C@@H]1NC(=O)[C@H](Cc2c[nH]c3c(C)cccc23)NC(=O)[C@H]([C@@H](C)O)NC(=O)[C@H](CC(=O)N(C)C)NC(=O)[C@@H](NC(=O)[C@H](CCCC[N+](C)(C)C)NC(=O)C(F)(F)F)C(C)(C)SSC(C)(C)[C@@H](C(=O)N[C@@H](Cc2ccc(OCCN(C)C)cc2)C(=O)N[C@@H](Cc2ccc3ccccc3c2)C(=O)NC2(C(=O)N[C@@H](CCC(=O)O)C(=O)N[C@@H](CC(N)=O)C(=O)N[C@@H](Cc3cccnc3)C(=O)N(C)CC(=O)N(C)C)CCOCC2)NC1=O [compound 93, CF3CO-K(Me)3-Pen(3)-N(N(Me)2)-T-7MeW-K(NMeAc)-Pen(3)-AEF(N(Me)2)-2Nal-THP-E-N-3Pya-Sar-CON(Me)2] (Tfa-[Lys(Me3)][Pen]D(NMe2)T[Trp(7-Me)][Lys(Me)](Ac)[Pen]Y(Me2NCH2CH2)[2Nal][Thp]EN[3Pal][Sar]-NMe2; disulfide 2-7) | 151 A^2 | 
CC(=O)NCCCC[C@@H]1NC(=O)[C@H](Cc2c[nH]c3c(-c4cccc(NC(C)=O)c4)cccc23)NC(=O)[C@H]([C@@H](C)O)NC(=O)[C@H](CC(N)=O)NC(=O)[C@@H](NC(=O)CCOCCOCC[N+](C)(C)C)C(C)(C)SSC(C)(C)[C@@H](C(=O)N[C@@H](Cc2ccc(OCCCCC[N+](C)(C)C)cc2)C(=O)N[C@@H](Cc2ccc3ccccc3c2)C(=O)NC2(C(=O)N[C@@H](CCC(=O)O)C(=O)N[C@@H](CC(N)=O)C(=O)N[C@@H](Cc3cccnc3)C(=O)N(C)CC(N)=O)CCOCC2)NC1=O [compound 444, cPEG3aCO-Pen(3)-N-T-7(3NAcPh)W-K(Ac)-Pen(3)-TMAPF-2Nal-THP-E-N-3Pya-Sar-CONH2] ({Me3N+(CH2)2O(CH2)2O(CH2)2CO}-[Pen]NT[Trp(7-(3-AcNH-Ph))]K(Ac)[Pen]Y(X3)[2Nal][Thp]EN[3Pal][Sar]-NH2; disulfide 1-6) | 174 A^2 | 

Reference: patent US20260022143A1, “Cyclic Peptide Inhibitors of IL-23” (JANSSEN PHARMACEUTICA NV, priority 2022, published 2026)
